# Literature values, collected in patent publication US11173186B2, “Dosing regime and formulations for type B adenovirus” (PSIOXUS THERAPEUTICS LIMITED, priority 2013, dated 2021).
# Settings: interim analysis; intratumoural talimogene laherparepvec vs subcutaneous GM-CSF
substance,measurement,value
"GM-CSF: subcutaneously administered GM-CSF, comparator in the OPTiM trial",durable response rate,2%
